# Measurements: ChEMBL document CHEMBL5131473, “One-pot synthesis of oxoaporphines as potent antitumor agents and investigation of their mechanisms of actions” (Eur J Med Chem, 2022)
# Active and inactive are the calls of the source. The rule behind the calls is not given here.
# Experiments:
# T-24 [1] = test: Inhibition of colony formation in human T24 cells 0.2 to 10 uM incubated for 24 hrs and measured for 10 days; assay type: functional, cell-based; conditions: dose 0.2-10 µM
# T-24 [2] = test: Inhibition of colony formation in human T24 cells upto 5 uM incubated for 24 hrs and measured for 10 days; assay type: functional; conditions: up to 5 µM
# T-24 [3] = test: Induction of cell cycle arrest in human T24 cells assessed as increase in Cyclin B expression at 10 to 15 uM incubated for 24 hrs by chemiluminescence based Western blotting analysis; assay type: functional; conditions: dose 10-15 µM, DDE = dose-dependent effect
# T-24 [4] = test: Induction of mitochondrial mediated apoptosis in human T24 cells assessed as upregulation of apaf-1 expression at 10 to 15 uM incubated for 24 hrs by Western blotting analysis; assay type: functional, cell-based; conditions: dose 10-15 µM
# T-24 [5] = test: Inhibition of cell migration in human T24 cells assessed as recovery of wound area at 5 uM measured after 24 hrs by wound healing assay based fluorescence microscopy; assay type: functional; design: scale not given: the % may be the effect or the level left
# T-24 [6] = test: Induction of cell cycle arrest in human T24 cells assessed as accumulation of cells at G2/M phase at 10 uM incubated for 24 hrs by propidium iodide/RNase A staining based flow cytometry analysis (reference value: 5.82 %); assay type: functional
# T-24 [7] = test: Induction of DNA damage in human T24 cells assessed as DNA strand breakage by measuring comet formation at 10 uM incubated for 24 hrs by comet assay; assay type: functional, cell-based
# T-24 [8] = test: Induction of apoptosis in human T24 cells assessed as viable cells at 15 uM incubated for 24 hrs by Annexin-V/PI staining based flow cytometry analysis (reference value: 94.3 %); assay type: functional; conditions: read-out: Activity
# T-24 [9] = test: Induction of apoptosis in human T24 cells assessed as early apoptotic cells at 15 uM incubated for 24 hrs by Annexin-V/PI staining based flow cytometry analysis (reference value: 3.27 %); assay type: functional
# T-24 [10] = test: Induction of DNA damage in human T24 cells assessed as increase in […] p53 expression at 10 to 15 uM incubated for 24 hrs by Western blot analysis; assay type: functional, cell-based; conditions: dose 10-15 µM
# T-24 [11] = test: Induction of mitochondrial membrane potential dysfunction in human T24 cells assessed as change in morphology at 10 to 15 uM by Mitotracker green dye based fluorescence microscopy; assay type: functional, cell-based; conditions: dose 10-15 µM
# T-24 [12] = test: Induction of apoptosis in human T24 cells assessed as necrotic cells at 20 uM incubated for 24 hrs by Annexin-V/PI staining based flow cytometry analysis (reference value: 1.92 %); assay type: functional
# T-24 [13] = test: Induction of mitochondrial ROS generation in human T24 cells at 10 uM measured after 24 hrs by DCFH-DA staining based confocal microscopy method; assay type: functional, cell-based
# T-24 [14] = test: Induction of apoptosis in human T24 cells assessed as necrotic cells at 15 uM incubated for 24 hrs by Annexin-V/PI staining based flow cytometry analysis (reference value: 1.92 %); assay type: functional
# T-24 [15] = test: Induction of apoptosis in human T24 cells assessed as necrotic cells at 10 uM incubated for 24 hrs by Annexin-V/PI staining based flow cytometry analysis (reference value: 1.92 %); assay type: functional
# T-24 [16] = test: Induction of DNA damage in human T24 cells assessed as increase in gamma H2AX phosphorylation at 2 uM incubated for 24 hrs by Hoechst33258 staining based immunofluorescence assay; assay type: functional, cell-based
# T-24 [17] = test: Induction of ROS generation in human T24 cells at 2 uM by fluorescence microscopy; assay type: functional, cell-based
# T-24 [18] = test: Induction of mitochondrial mediated apoptosis in human T24 cells assessed as decrease in Bcl-2 protein expression at 2 to 4 uM incubated for 24 hrs by Western blotting analysis; assay type: functional, cell-based; conditions: dose 2-4 µM
# T-24 [19] = test: Induction of mitochondrial membrane potential dysfunction in human T24 cells assessed as depolarised cells at 4 uM incubated for 24 hrs by JC-1 staining based flow cytometry (reference value: 6.20%); assay type: functional
# T-24 [20] = test: Induction of mitochondrial ROS generation in human T24 cells at 2 uM measured after 24 hrs by DCFH-DA staining based confocal microscopy method; assay type: functional, cell-based
# T-24 [21] = test: Induction of ROS accumulation in human T24 cells assessed as increase in intracellular ROS level at 2 uM by […] based flow cytometry; assay type: functional, cell-based
# T-24 [22] = test: Induction of apoptosis in human T24 cells assessed as increase in caspase 9 activity at 4 uM (Rvb= 7.2%); assay type: functional
# T-24 [23] = test: Induction of apoptosis in human T24 cells assessed as condensed chromatin at 2 uM by Hoechst33258 staining based fluorescence microscopy; assay type: functional, cell-based
# T-24 [24] = test: Induction of apoptosis in human T24 cells assessed as early apoptotic cells at 6 uM incubated for 24 hrs by Annexin-V/PI staining based flow cytometry analysis (reference value: 3.27 %); assay type: functional
# [25] = Toxicity in human WI-38 cells assessed as wound closure at 1 uM measured after 24 hrs by fluorescence microscopy based wound healing assay; assay type: cell-based; conditions: wi-38, 24 h
# T-24 [26] = test: Induction of Ca2+ production in human T24 cells assessed as increase in intracellular Ca2+ concentration at 2 uM by Fluo3-AM staining based fluorescence microscopic method; assay type: functional, cell-based
# T-24 [27] = test: Induction of apoptosis in human T24 cells assessed as early apoptotic cells at 0.5 uM incubated for 24 hrs by Annexin-V/PI staining based flow cytometry analysis (reference value: 3.27 %); assay type: functional
# T-24 [28] = test: Induction of apoptosis in human T24 cells assessed as late apoptotic cells at 0.5 uM incubated for 24 hrs by Annexin-V/PI staining based flow cytometry analysis (reference value: 0.543 %); assay type: functional
# T-24 [29] = test: Induction of cell cycle arrest in human T24 cells assessed as accumulation of cells at S phase at 0.5 uM incubated for 24 hrs by propidium iodide/RNase A staining based flow cytometry analysis (reference value: 42.47 %); assay type: functional
# T-24 [30] = test: Induction of mitochondrial membrane potential dysfunction in human T24 cells assessed as depolarised cells at 1 uM incubated for 24 hrs by JC-1 staining based flow cytometry (reference value: 6.20%); assay type: functional
# T-24 [31] = test: Induction of mitochondrial mediated apoptosis in human T24 cells assessed as decrease in Bcl-2 protein expression at 0.5 to 1 uM incubated for 24 hrs by Western blotting analysis; assay type: functional, cell-based; conditions: dose 0.5-1 µM
# T-24 [32] = test: Induction of cell cycle arrest in human T24 cells assessed as accumulation of cells at G2/M phase at 1 uM incubated for 24 hrs by propidium iodide/RNase A staining based flow cytometry analysis (reference value: 5.82 %); assay type: functional
# T-24 [33] = test: Induction of cell cycle arrest in human T24 cells assessed as accumulation of cells at G2/M phase at 0.5 uM incubated for 24 hrs by propidium iodide/RNase A staining based flow cytometry analysis (reference value: 5.82 %); assay type: functional
# T-24 [34] = test: Induction of apoptosis in human T24 cells assessed as viable cells at 0.5 uM incubated for 24 hrs by Annexin-V/PI staining based flow cytometry analysis (reference value: 94.3 %); assay type: functional; conditions: read-out: Activity
# T-24 [35] = test: Induction of DNA damage in human T24 cells assessed as DNA strand breakage by measuring comet formation at 0.5 uM incubated for 24 hrs by comet assay; assay type: functional, cell-based
# T-24 [36] = test: Induction of mitochondrial membrane potential dysfunction in human T24 cells assessed as increase in fragmentation at 0.5 uM incubated for 24 hrs by TEM analysis; assay type: functional, cell-based
smiles,measurement,setting,value
O=C1c2ccccc2-c2cccc3ccnc1c23,inhibition,T-24 [1],Active
same,inhibition (INH),T-24 [2],100%
same,Activity,T-24 [3],Dde
same,Activity,T-24 [4],Active
same,Activity,T-24 [5],21.7%
same,Activity,T-24 [6],13.69%
same,Activity,T-24 [7],Active
same,viability at 15 µM,T-24 [8],58%
same,Activity,T-24 [9],32.9%
same,Activity,T-24 [10],Active
same,Activity,T-24 [11],Active
same,Activity,T-24 [12],2.31%
same,Activity,T-24 [13],Active
same,Activity,T-24 [14],2.44%
same,Activity,T-24 [15],3.31%
O=C1c2cc([N+](=O)[O-])ccc2-c2ccc([N+](=O)[O-])c3ccnc1c23,Activity,T-24 [16],Active
same,Activity,T-24 [17],Active
same,Activity,T-24 [18],Active
same,Activity,T-24 [19],31.3%
same,Activity,T-24 [20],Active
same,Activity,T-24 [21],Active
same,Activity,T-24 [22],28.9%
same,Activity,T-24 [23],Active
same,Activity,T-24 [24],36.2%
same,Activity,[25],Non-Toxic
same,Activity,T-24 [26],Active
O=C1c2ccccc2-c2ccc([N+](=O)[O-])c3ccnc1c23,Activity,T-24 [27],35.3%
same,Activity,T-24 [28],5.1%
same,Activity,T-24 [29],47.37%
same,Activity,T-24 [30],44.5%
same,Activity,T-24 [31],Active
same,Activity,T-24 [32],61.26%
same,Activity,T-24 [33],52.05%
same,viability at 0.5 µM,T-24 [34],58.1%
same,Activity,T-24 [35],Active
same,Activity,T-24 [36],Active
